Laboratory results published in PubChem BioAssay (NCI).
Where “and” joins values, the source holds several entries; their conditions need not be identical. Equal values may be shown once.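 In this assay, cells in 96-well plates receive the compound at five concentrations for 48 hours. Endpoints are linearly interpolated between the surrounding concentrations. GI50 = concentration required for 50% inhibition of growth. Definition used: TGI = concentration required for complete inhibition of growth.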

Legend:
Assay in all cases: growth of human tumour cells (NCI), 48 h
A498 renal = test system: A498 renal
MALME-3M melanoma = test system: MALME-3M melanoma
M14 melanoma = test system: M14 melanoma
HOP-92 NSCLC = test system: HOP-92 NSCLC
SF-268 CNS = test system: SF-268 CNS
U251 CNS = test system: U251 CNS
PC-3 prostate = test system: PC-3 prostate
HS 578T breast = test system: HS 578T breast
DU-145 prostate = test system: DU-145 prostate
T-47D breast = test system: T-47D breast

COc1cc(CC(=O)c2ccc3c(c2)OCO3)cc(OC)c1OC
TGI (A498 renal): > 100 µM | TGI (MALME-3M melanoma): > 100 µM | TGI (M14 melanoma): > 100 µM | TGI (HOP-92 NSCLC): > 100 µM | TGI (SF-268 CNS): > 100 µM | TGI (U251 CNS): > 100 µM

CC1(C)CC2(C)OC2C2(C1)N=NC(=Nc1ccccc1)O2 (stereo not drawn)
GI50 (PC-3 prostate): 11.5 µM | TGI (PC-3 prostate): 28.9 µM | GI50 (A498 renal): 16.7 µM | TGI (A498 renal): 34.8 µM | GI50 (HS 578T breast): 17.3 µM | TGI (HS 578T breast): 71.7 µM | GI50 (MALME-3M melanoma): 3.07 µM | TGI (MALME-3M melanoma): 12.1 µM | GI50 (DU-145 prostate): 4.78 µM | TGI (DU-145 prostate): 18.7 µM | GI50 (M14 melanoma): 5.15 µM | TGI (M14 melanoma): 19.2 µM | GI50 (T-47D breast): 2.83 µM | TGI (T-47D breast): 14.4 µM | GI50 (SF-268 CNS): 4.9 µM | TGI (SF-268 CNS): 19.1 µM | GI50 (U251 CNS): 13 µM | TGI (U251 CNS): 26 µM

Cn1c(COC(=O)NCCN2CCOCC2)nc2c(N3CCOCC3)nc(-c3ccccc3)nc21
GI50 (PC-3 prostate): 1.33 µM | TGI (PC-3 prostate): 3 µM | GI50 (A498 renal): 1.44 µM | TGI (A498 renal): 2.83 µM | GI50 (HS 578T breast): 1.49 µM | TGI (HS 578T breast): 5.38 µM | GI50 (MALME-3M melanoma): 1.56 µM | TGI (MALME-3M melanoma): 3.02 µM | GI50 (DU-145 prostate): 1.25 µM | TGI (DU-145 prostate): 2.68 µM | GI50 (M14 melanoma): 1.15 µM | TGI (M14 melanoma): 2.58 µM | GI50 (HOP-92 NSCLC): 0.779 µM | TGI (HOP-92 NSCLC): 2.45 µM | GI50 (SF-268 CNS): 1.38 µM | TGI (SF-268 CNS): 2.95 µM | GI50 (U251 CNS): 1.37 µM | TGI (U251 CNS): 2.9 µM

C[C@H](NC(=O)CCC(F)(F)F)C(=O)N[C@@H]1C(=O)N(CCO)c2ncccc2-c2ccccc21
GI50 (PC-3 prostate): > 100 µM | TGI (PC-3 prostate): > 100 µM | GI50 (A498 renal): > 100 µM | TGI (A498 renal): > 100 µM | GI50 (HS 578T breast): > 100 µM | TGI (HS 578T breast): > 100 µM | GI50 (MALME-3M melanoma): > 100 µM | TGI (MALME-3M melanoma): > 100 µM | GI50 (DU-145 prostate): > 100 µM | TGI (DU-145 prostate): > 100 µM | GI50 (M14 melanoma): > 100 µM | TGI (M14 melanoma): > 100 µM | GI50 (T-47D breast): > 100 µM | TGI (T-47D breast): > 100 µM | GI50 (SF-268 CNS): > 100 µM | TGI (SF-268 CNS): > 100 µM | GI50 (U251 CNS): > 100 µM | TGI (U251 CNS): > 100 µM

COC(=O)C1CCC(=NC2c3ccccc3-c3ccccc32)N1 (stereo not drawn)
TGI (A498 renal): > 100 µM | TGI (MALME-3M melanoma): > 100 µM | TGI (M14 melanoma): > 100 µM | TGI (HOP-92 NSCLC): 76.6 µM | TGI (SF-268 CNS): > 100 µM | TGI (U251 CNS): > 100 µM

Clc1ccccc1C1=NN(c2ccccc2)C2c3cc(Br)ccc3OCC12 (stereo not drawn)
TGI (A498 renal): > 100 µM | TGI (MALME-3M melanoma): > 100 µM | TGI (HOP-92 NSCLC): > 100 µM | TGI (SF-268 CNS): > 100 µM | TGI (U251 CNS): > 100 µM

CCCCCCCCCCCCCCCC(=O)N[C@H]1CCc2cc(OC)c(OC)c(OC)c2-c2ccc(SC)c(=O)cc21
GI50 (A498 renal): 2.27 µM | TGI (A498 renal): 3.64 µM and 5.35 µM | GI50 (MALME-3M melanoma): 0.345 µM | TGI (MALME-3M melanoma): 16.3 µM and 1.67 µM | GI50 (M14 melanoma): 0.386 µM | TGI (M14 melanoma): 2.86 µM and 1.89 µM | GI50 (HOP-92 NSCLC): 0.564 µM | TGI (HOP-92 NSCLC): 11.3 µM and 5.32 µM | GI50 (SF-268 CNS): 1.63 µM | TGI (SF-268 CNS): 7.59 µM and 10.9 µM | GI50 (U251 CNS): 2.64 µM | TGI (U251 CNS): 8.6 µM and 9.32 µM

CCOC(=N)CC(=O)NC(C)c1ccccc1 (stereo not drawn)
TGI (A498 renal): > 100 µM | TGI (MALME-3M melanoma): > 100 µM | TGI (M14 melanoma): > 100 µM | TGI (SF-268 CNS): > 100 µM | TGI (U251 CNS): > 100 µM

O=C1c2ccccc2C(=O)c2c1ccc1c3ccccc3n(Cc3ccccc3)c21
TGI (MALME-3M melanoma): > 100 µM | TGI (M14 melanoma): > 100 µM | TGI (HOP-92 NSCLC): 94.2 µM | TGI (SF-268 CNS): > 100 µM

CN1c2ccccc2C(=O)Nc2cnc(Cl)nc21
TGI (PC-3 prostate): > 100 µM | TGI (A498 renal): > 100 µM | TGI (MALME-3M melanoma): > 100 µM | TGI (DU-145 prostate): > 100 µM | TGI (M14 melanoma): > 100 µM | TGI (HOP-92 NSCLC): > 100 µM | TGI (T-47D breast): > 100 µM | TGI (U251 CNS): > 100 µM

COc1cc(C2c3cc4c(cc3[C@@H](Nc3cccc(O)c3)C3COC(=O)[C@H]23)OCO4)cc(OC)c1O (stereo partly drawn)
TGI (PC-3 prostate): 15.4 µM | GI50 (A498 renal): 0.86 µM | TGI (A498 renal): 5.9 µM | TGI (MALME-3M melanoma): 11.2 µM | TGI (DU-145 prostate): 1.75 µM | GI50 (M14 melanoma): 0.991 µM | TGI (M14 melanoma): 14.1 µM | GI50 (HOP-92 NSCLC): 0.458 µM | TGI (HOP-92 NSCLC): 0.951 µM and 9.4 µM | TGI (T-47D breast): 53.2 µM | GI50 (SF-268 CNS): 0.942 µM | TGI (SF-268 CNS): 14.1 µM | GI50 (U251 CNS): 0.732 µM | TGI (U251 CNS): 9.22 µM

CCC1NCC(=O)c2c1[nH]c1ccccc21 (stereo not drawn)
TGI (A498 renal): > 100 µM | TGI (MALME-3M melanoma): > 100 µM | TGI (M14 melanoma): > 100 µM | TGI (HOP-92 NSCLC): > 100 µM | TGI (SF-268 CNS): > 100 µM | TGI (U251 CNS): > 100 µM

C/C(=N\NC(=S)N1CCC(C2CCN(C(=S)N/N=C(\C)c3ccccn3)CC2)CC1)c1ccccn1
TGI (A498 renal): > 100 µM | TGI (MALME-3M melanoma): > 100 µM | TGI (M14 melanoma): > 100 µM | TGI (HOP-92 NSCLC): > 100 µM | TGI (SF-268 CNS): > 100 µM | TGI (U251 CNS): > 100 µM

Cc1cccc(N2C(=O)/C(=C/c3ccc(N(CCC#N)CCC#N)cc3C)N=C2c2cc([N+](=O)[O-])ccc2Cl)c1
TGI (A498 renal): > 100 µM | TGI (MALME-3M melanoma): > 100 µM | TGI (M14 melanoma): > 100 µM | TGI (HOP-92 NSCLC): > 100 µM | TGI (SF-268 CNS): > 100 µM | TGI (U251 CNS): > 100 µM

O=C1/C(=C/c2ccccc2)CN(C(=O)OCC(Cl)(Cl)Cl)C/C1=C\c1ccccc1
TGI (A498 renal): 6.29 µM | TGI (MALME-3M melanoma): 11.9 µM | TGI (M14 melanoma): 4.65 µM | TGI (SF-268 CNS): 15.3 µM | TGI (U251 CNS): 3.28 µM

CCOC(=O)NNC(=O)NC12CC3CC(CC(C3)C1)C2
TGI (A498 renal): > 100 µM | TGI (MALME-3M melanoma): > 100 µM | TGI (M14 melanoma): > 100 µM | TGI (HOP-92 NSCLC): > 100 µM | TGI (SF-268 CNS): > 100 µM | TGI (U251 CNS): > 100 µM
